Reference: ChEMBL document CHEMBL2331446, “Discovery of a potential anti-inflammatory agent: 3-oxo-29-noroleana-1,9(11),12-trien-2,20-dicarbonitrile” (J Med Chem, 2013)
Activity calls are given as the source filed them. The rule behind the calls is not given here.

Assays:
RAW264.7 [1] = test: Cytotoxicity against mouse RAW264.7 cells at 80 uM after 24 hrs by MTT assay; format: cell-based; conditions: raw264.7, 24 h
RAW264.7 [2] = test: Cytotoxicity against mouse LPS-challenged RAW264.7 cells at 80 uM after 24 hrs by MTT assay; format: cell-based; conditions: raw264.7, 24 h
RAW264.7 [3] = test: Antiinflammatory activity in mouse RAW264.7 cells assessed as inhibition of LPS-induced NO production incubated for 2 hrs prior to LPS-challenge measured after 24 hrs by Griess method; format: functional, cell-based
RAW264.7 [4] = test: Antiinflammatory activity in mouse RAW264.7 cells assessed as inhibition of LPS-induced NO production at 50 uM incubated for 2 hrs prior to LPS-challenge measured after 24 hrs by Griess method; format: functional
Mus musculus [5] = test: Antiinflammatory activity in ICR mouse assessed as reversal in LPS-induced weight loss at 20 mg/kg, ip administered for 5 days prior to LPS-challenge measured from day 9 to 11 relative to control; format: functional, organism-based; design: dose 20 mg/kg
Mus musculus [6] = test: Antiinflammatory activity in ICR mouse assessed as reversal in LPS-induced weight loss at 20 mg/kg, ip administered for 5 days prior to LPS-challenge measured up to day 8 relative to control; format: functional, organism-based; design: dose 20 mg/kg
Mus musculus [7] = test: Antiinflammatory activity in ICR mouse assessed as protection against LPS-induced sepsis at 20 mg/kg, ip administered for 5 days prior to LPS-challenge measured after 2 hrs; format: functional, organism-based; design: dose 20 mg/kg
Mus musculus [8] = test: Antiinflammatory activity in ICR mouse assessed as protection against LPS-induced sepsis at 50 mg/kg, ip administered for 5 days prior to LPS-challenge measured after 2 hrs; format: functional, organism-based; design: dose 50 mg/kg
RAW264.7 [9] = test: Inhibition of ERK phosphorylation in mouse LPS-induced RAW264.7 cells at 75 uM incubated for 2 hrs prior to LPS-challenge measured after 30 mins by Western blot analysis; format: cell-based
RAW264.7 [10] = test: Inhibition of JNK phosphorylation in mouse LPS-induced RAW264.7 cells at 75 uM incubated for 2 hrs prior to LPS-challenge measured after 30 mins by Western blot analysis; format: cell-based
[11] = molecular target: MAP kinase p38 (Mus musculus) (UniProt P47811+O08911+Q9WUI1+Q9Z1B7); test: Inhibition of MAPK p38 in mouse LPS-induced RAW264.7 cells at 75 uM incubated for 2 hrs prior to LPS-challenge measured after 30 mins by Western blot analysis; format: cell-based
[12] = molecular target: T1, NF-kappa-B inhibitor alpha (Mus musculus) (UniProt Q9Z1E3); test: Inhibition of IkappaBalpha in mouse RAW264.7 cells assessed as inhibition of LPS-stimulated NF-kappaB p65 subunit accumulation in nucleus at 75 uM incubated for 2 hrs prior to LPS-challenge measured after 30 mins by Western blot analysis; format: cell-based
T1 sequence (whole entry): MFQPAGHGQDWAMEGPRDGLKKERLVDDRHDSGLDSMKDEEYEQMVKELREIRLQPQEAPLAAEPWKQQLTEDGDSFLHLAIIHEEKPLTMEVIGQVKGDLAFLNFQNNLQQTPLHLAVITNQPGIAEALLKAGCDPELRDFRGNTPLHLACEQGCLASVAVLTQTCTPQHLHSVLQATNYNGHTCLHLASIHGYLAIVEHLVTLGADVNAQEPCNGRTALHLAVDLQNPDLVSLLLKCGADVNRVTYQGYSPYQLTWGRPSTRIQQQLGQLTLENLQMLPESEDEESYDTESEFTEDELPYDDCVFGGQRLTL

[13] = molecular target: T1, NF-kappa-B inhibitor alpha (Mus musculus); test: Inhibition of IkappaBalpha degradation in mouse LPS-induced RAW264.7 cells assessed as increase in cytosolic IkappaB level at 75 uM incubated for 2 hrs prior to LPS-challenge measured after 30 mins by Western blot analysis; format: cell-based
[14] = molecular target: T1, NF-kappa-B inhibitor alpha (Mus musculus); test: Inhibition of IkappaB phosphorylation in mouse RAW264.7 cells assessed as decrease in LPS-induced phospho-IkappaBalpha level at 75 uM incubated for 2 hrs prior to LPS-challenge measured after 30 mins by Western blot analysis; format: cell-based
RAW264.7 [15] = test: Antiinflammatory activity in mouse RAW264.7 cells assessed as inhibition of LPS-stimulated TNF-alpha mRNA expression at 75 uM incubated for 2 hrs prior to LPS-challenge measured after 8 hrs by quantitative real time PCR analysis; format: functional, cell-based
RAW264.7 [16] = test: Antiinflammatory activity in mouse RAW264.7 cells assessed as inhibition of LPS-stimulated IL-1beta mRNA expression at 75 uM incubated for 2 hrs prior to LPS-challenge measured after 8 hrs by quantitative real time PCR analysis; format: functional, cell-based
RAW264.7 [17] = test: Antiinflammatory activity in mouse RAW264.7 cells assessed as inhibition of LPS-stimulated IL-6 mRNA expression at 75 uM incubated for 2 hrs prior to LPS-challenge measured after 8 hrs by quantitative real time PCR analysis; format: functional, cell-based
RAW264.7 [18] = test: Antiinflammatory activity in mouse RAW264.7 cells assessed as inhibition of LPS-induced iNOS protein expression at 75 uM incubated for 2 hrs prior to LPS-challenge measured after 24 hrs by Western blot analysis; format: functional, cell-based

SMILES | Activity (RAW264.7 [1]) | Activity (RAW264.7 [2]) | IC50 (RAW264.7 [3]) | inhibition at 50 µM (RAW264.7 [4]) | other results
CC1(C)C(=O)CC[C@]2(C)C3=CC=C4[C@@H]5C[C@@](C)(C(=O)O)CC[C@]5(C)CC[C@@]4(C)[C@]3(C)CC[C@@H]12 | Non-toxic | Non-toxic | > 50 µM | 7.36% | –
CC1(C)C(=O)C(I)=C[C@]2(C)C3=CC=C4[C@@H]5C[C@@](C)(C#N)CC[C@]5(C)CC[C@@]4(C)[C@]3(C)CC[C@@H]12 | Non-toxic | Non-toxic | 25.1 µM | 52.9% | –
CNC(=O)[C@@]1(C)CC[C@]2(C)CC[C@]3(C)C(=CC=C4[C@@]5(C)C=C(O)C(=O)C(C)(C)[C@@H]5CC[C@]43C)[C@@H]2C1 | Non-toxic | Non-toxic | > 50 µM | 27.6% | –
COC(=O)[C@@]1(C)CC[C@]2(C)CC[C@]3(C)C(=CC=C4[C@@]5(C)C=C(C#N)C(=O)C(C)(C)[C@@H]5CC[C@]43C)[C@@H]2C1 | Non-toxic | Non-toxic | 20 µM | 67.3% | –
CC1(C)C(=O)C(O)=C[C@]2(C)C3=CC=C4[C@@H]5C[C@@](C)(C(=O)O)CC[C@]5(C)CC[C@@]4(C)[C@]3(C)CC[C@@H]12 | Non-toxic | Non-toxic | 32.8 µM | 42.1% | –
COC(=O)[C@@]1(C)CC[C@]2(C)CC[C@]3(C)C(=CC=C4[C@@]5(C)C=CC(=O)C(C)(C)[C@@H]5CC[C@]43C)[C@@H]2C1 | Non-toxic | Non-toxic | > 50 µM | 5.5% | –
CC1(C)C(=O)C(I)=C[C@]2(C)C3=CC=C4[C@@H]5C[C@@](C)(C(=O)O)CC[C@]5(C)CC[C@@]4(C)[C@]3(C)CC[C@@H]12 | Non-toxic | Non-toxic | 20.1 µM | 60.3% | –
CC1(C)C(=O)C=C[C@]2(C)C3=CC=C4[C@@H]5C[C@@](C)(C#N)CC[C@]5(C)CC[C@@]4(C)[C@]3(C)CC[C@@H]12 | Non-toxic | Non-toxic | 28.5 µM | 50.2% | –
CC1(C)C(=O)C(O)=C[C@]2(C)C3=CC=C4[C@@H]5C[C@@](C)(C(N)=O)CC[C@]5(C)CC[C@@]4(C)[C@]3(C)CC[C@@H]12 | Non-toxic | Non-toxic | 35.1 µM | 37.5% | –
CC1(C)C(=O)C=C[C@]2(C)C3=CC=C4[C@@H]5C[C@@](C)(C(=O)O)CC[C@]5(C)CC[C@@]4(C)[C@]3(C)CC[C@@H]12 | Non-toxic | Non-toxic | > 50 µM | 25.1% | –
CC1(C)C(=O)C(C#N)=C[C@]2(C)C3=CC=C4[C@@H]5C[C@@](C)(C(=O)O)CC[C@]5(C)CC[C@@]4(C)[C@]3(C)CC[C@@H]12 | Non-toxic | Non-toxic | 3.08 µM | 98.4% | –
CC1(C)C(=O)C=C[C@]2(C)C3=CC=C4[C@@H]5C[C@@](C)(C(N)=O)CC[C@]5(C)CC[C@@]4(C)[C@]3(C)CC[C@@H]12 | Non-toxic | Non-toxic | 40.1 µM | 32.5% | –
CC1(C)[C@@H](O)CC[C@]2(C)C3=CC=C4[C@@H]5C[C@@](C)(C(=O)O)CC[C@]5(C)CC[C@@]4(C)[C@]3(C)CC[C@@H]12 | Non-toxic | Non-toxic | > 50 µM | 15.6% | –
COC(=O)[C@@]1(C)CC[C@]2(C)CC[C@]3(C)C(=CC=C4[C@@]5(C)C=C(I)C(=O)C(C)(C)[C@@H]5CC[C@]43C)[C@@H]2C1 | Non-toxic | Non-toxic | > 50 µM | 15.3% | –
C[C@@H]1C[C@H]2[C@@H]3CCC4=CC(=O)C=C[C@]4(C)[C@@]3(F)[C@@H](O)C[C@]2(C)[C@@]1(O)C(=O)CO [DEXAMETHASONE] | – | – | 1.43 µM | 98.2% | Activity (Mus musculus [5]): Active; Activity (Mus musculus [6]): inactive; Activity (Mus musculus [7]): Active
COC(=O)[C@@]1(C)CC[C@]2(C)CC[C@]3(C)C(=CC=C4[C@@]5(C)C=C(O)C(=O)C(C)(C)[C@@H]5CC[C@]43C)[C@@H]2C1 | Non-toxic | Non-toxic | 38.6 µM | 33.3% | –
CC1(C)[C@@H](O)CC[C@]2(C)[C@H]3C(=O)C=C4[C@@H]5C[C@@](C)(C(=O)O)CC[C@]5(C)CC[C@@]4(C)[C@]3(C)CC[C@@H]12 [ENOXOLONE] | – | – | 188 µM | 5.12% | Activity (Mus musculus [8]): Active; inhibition (RAW264.7 [9]): Active; inhibition (RAW264.7 [10]): Active; inhibition [11]: Active; inhibition [12]: Active; inhibition [13]: Active; inhibition [14]: Active; inhibition (RAW264.7 [15]): Active; inhibition (RAW264.7 [16]): Active; inhibition (RAW264.7 [17]): Active; inhibition (RAW264.7 [18]): Active
CC1(C)C(=O)C(O)=C[C@]2(C)C3=CC=C4[C@@H]5C[C@@](C)(C(=O)n6ccnc6)CC[C@]5(C)CC[C@@]4(C)[C@]3(C)CC[C@@H]12 | Non-toxic | Non-toxic | 6.22 µM | 99% | –
